Laboratory results as given in US20210070748A1, “INHIBITORS OF BRUTONS TYROSINE KINASE” (Pharmacyclics LLC, priority 2015, published 2021).

Legend:
Type in all cases: biochemical
BTK-WT = biological target: T1, BTK-WT (Homo sapiens, UniProt Q06187); assay: Btk in vitro inhibitory activity (one of Method A TR-FRET, Method B electrophoretic mobility shift, Method C radiometric filter binding); conditions: D-compounds panel data; read-out: IC50 BTK-WT
T1 construct: purified from insect cells as a full-length construct containing an N-terminal 6X-His tag; His6 (N); made in house; host or cells: insect cells (baculovirus Sf21 in Method B)

JAK3 = biological target: T2, JAK3 (Homo sapiens, UniProt P52333); assay: Inhibition of a panel of kinases, in vitro HotSpot kinase assay: JAK3; conditions: D-compounds panel data; 1 μM ATP; read-out: IC50 JAK3
T2 sequence (P52333 1-1124): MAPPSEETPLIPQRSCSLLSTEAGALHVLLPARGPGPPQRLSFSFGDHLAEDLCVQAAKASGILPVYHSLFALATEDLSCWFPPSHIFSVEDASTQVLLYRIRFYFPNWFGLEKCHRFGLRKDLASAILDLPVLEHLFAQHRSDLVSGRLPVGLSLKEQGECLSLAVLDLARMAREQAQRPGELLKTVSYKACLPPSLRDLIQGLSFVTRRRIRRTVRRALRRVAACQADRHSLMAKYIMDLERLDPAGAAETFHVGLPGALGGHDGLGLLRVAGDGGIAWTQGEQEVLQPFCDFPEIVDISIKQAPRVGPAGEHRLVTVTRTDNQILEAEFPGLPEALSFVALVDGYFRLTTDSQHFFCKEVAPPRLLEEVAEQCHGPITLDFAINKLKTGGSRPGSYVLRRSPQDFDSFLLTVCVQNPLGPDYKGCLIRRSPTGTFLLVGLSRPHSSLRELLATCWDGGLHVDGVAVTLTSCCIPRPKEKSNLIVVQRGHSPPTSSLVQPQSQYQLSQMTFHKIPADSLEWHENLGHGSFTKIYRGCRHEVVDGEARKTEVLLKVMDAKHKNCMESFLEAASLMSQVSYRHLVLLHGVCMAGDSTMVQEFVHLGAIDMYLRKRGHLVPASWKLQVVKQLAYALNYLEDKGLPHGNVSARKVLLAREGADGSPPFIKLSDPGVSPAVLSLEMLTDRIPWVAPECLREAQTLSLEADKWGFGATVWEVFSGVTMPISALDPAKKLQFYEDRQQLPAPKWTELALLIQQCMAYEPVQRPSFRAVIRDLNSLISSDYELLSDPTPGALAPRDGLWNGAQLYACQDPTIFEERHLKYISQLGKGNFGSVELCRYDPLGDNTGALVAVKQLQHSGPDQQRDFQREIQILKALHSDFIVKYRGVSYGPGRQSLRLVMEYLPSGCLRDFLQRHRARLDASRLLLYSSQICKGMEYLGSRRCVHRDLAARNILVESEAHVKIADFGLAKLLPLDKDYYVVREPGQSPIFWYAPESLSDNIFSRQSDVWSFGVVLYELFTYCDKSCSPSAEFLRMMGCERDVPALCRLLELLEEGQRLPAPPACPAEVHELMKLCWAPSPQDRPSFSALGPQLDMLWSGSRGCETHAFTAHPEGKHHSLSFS

LCK = LCK (Homo sapiens, UniProt P06239); assay: Inhibition of a panel of kinases, in vitro HotSpot kinase assay: LCK; conditions: D-compounds panel data; 1 μM ATP; read-out: IC50 LCK
EGFR = EGFR (Homo sapiens, UniProt P00533); assay: Inhibition of a panel of kinases, in vitro HotSpot kinase assay: EGFR; conditions: D-compounds panel data; 1 μM ATP
Protocol: (§1) The degree of inhibition of a panel of kinases is determined using the in vitro HotSpot kinase assay (purified enzymes, ^33P-ATP, an appropriate substrate and 1 μM ATP).

SRC = SRC (Homo sapiens, UniProt P12931); assay: Inhibition of a panel of kinases, in vitro HotSpot kinase assay: SRC; conditions: D-compounds panel data; 1 μM ATP
Protocol: as §1

T1 sequence (Q06187 whole entry): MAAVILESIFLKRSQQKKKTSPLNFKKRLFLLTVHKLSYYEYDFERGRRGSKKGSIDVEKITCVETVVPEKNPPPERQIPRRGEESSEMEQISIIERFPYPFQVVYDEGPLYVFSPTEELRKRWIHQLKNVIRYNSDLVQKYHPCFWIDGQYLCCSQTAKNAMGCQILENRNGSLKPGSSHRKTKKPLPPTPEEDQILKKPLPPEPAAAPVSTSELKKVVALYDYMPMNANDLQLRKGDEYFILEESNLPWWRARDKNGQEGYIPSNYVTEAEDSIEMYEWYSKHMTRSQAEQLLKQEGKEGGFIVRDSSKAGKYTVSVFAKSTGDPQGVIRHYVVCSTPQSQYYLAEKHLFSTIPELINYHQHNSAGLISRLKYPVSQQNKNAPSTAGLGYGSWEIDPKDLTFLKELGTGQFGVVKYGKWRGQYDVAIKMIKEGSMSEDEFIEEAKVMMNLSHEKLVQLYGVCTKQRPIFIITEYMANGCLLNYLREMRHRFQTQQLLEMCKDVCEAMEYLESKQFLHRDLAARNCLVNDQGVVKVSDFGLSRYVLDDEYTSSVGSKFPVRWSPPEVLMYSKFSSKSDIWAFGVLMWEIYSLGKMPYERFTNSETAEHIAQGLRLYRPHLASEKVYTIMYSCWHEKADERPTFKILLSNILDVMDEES
SRC, sequence (P12931 whole entry): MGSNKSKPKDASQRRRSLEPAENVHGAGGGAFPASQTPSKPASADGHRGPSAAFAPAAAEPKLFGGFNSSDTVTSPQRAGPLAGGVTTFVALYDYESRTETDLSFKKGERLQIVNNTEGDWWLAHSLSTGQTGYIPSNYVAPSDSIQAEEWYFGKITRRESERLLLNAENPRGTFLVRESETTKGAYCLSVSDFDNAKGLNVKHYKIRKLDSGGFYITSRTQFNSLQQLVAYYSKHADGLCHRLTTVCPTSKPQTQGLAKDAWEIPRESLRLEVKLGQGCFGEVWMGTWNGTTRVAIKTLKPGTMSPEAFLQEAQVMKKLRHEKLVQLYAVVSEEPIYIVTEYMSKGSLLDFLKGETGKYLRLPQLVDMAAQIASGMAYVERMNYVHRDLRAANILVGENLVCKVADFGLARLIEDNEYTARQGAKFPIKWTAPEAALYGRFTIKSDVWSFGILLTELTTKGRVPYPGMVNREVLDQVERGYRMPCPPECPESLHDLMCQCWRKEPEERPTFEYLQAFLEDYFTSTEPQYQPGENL
EGFR, sequence (P00533 25-1210): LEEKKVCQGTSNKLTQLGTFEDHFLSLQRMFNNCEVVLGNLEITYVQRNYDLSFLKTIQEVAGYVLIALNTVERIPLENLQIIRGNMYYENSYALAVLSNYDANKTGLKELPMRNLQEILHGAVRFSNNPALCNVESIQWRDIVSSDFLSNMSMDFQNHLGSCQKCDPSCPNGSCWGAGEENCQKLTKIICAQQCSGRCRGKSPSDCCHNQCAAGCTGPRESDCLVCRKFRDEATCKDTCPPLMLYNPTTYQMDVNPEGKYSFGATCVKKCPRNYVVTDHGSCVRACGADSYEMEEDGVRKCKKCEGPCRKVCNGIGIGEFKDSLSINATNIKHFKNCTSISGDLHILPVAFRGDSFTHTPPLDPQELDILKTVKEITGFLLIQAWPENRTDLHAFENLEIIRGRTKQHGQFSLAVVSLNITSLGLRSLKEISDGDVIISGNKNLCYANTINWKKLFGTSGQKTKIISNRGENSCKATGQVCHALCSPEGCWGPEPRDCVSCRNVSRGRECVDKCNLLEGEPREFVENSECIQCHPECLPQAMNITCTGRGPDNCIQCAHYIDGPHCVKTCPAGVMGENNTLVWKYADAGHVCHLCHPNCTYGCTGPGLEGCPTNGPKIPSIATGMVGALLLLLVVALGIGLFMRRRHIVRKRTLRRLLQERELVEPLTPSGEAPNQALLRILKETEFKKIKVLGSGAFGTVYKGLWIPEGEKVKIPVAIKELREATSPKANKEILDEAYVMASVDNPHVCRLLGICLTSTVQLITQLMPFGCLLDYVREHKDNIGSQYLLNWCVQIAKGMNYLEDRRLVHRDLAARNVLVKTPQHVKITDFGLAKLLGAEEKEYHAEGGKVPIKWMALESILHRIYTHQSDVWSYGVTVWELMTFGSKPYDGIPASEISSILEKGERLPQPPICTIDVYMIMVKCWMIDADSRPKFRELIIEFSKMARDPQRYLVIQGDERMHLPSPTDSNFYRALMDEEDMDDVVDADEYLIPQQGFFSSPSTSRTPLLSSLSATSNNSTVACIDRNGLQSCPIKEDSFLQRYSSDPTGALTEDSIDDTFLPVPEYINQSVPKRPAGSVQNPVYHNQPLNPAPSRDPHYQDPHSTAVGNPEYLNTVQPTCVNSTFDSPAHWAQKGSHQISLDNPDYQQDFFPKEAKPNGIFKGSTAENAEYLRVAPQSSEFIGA
LCK, sequence (P06239 whole entry): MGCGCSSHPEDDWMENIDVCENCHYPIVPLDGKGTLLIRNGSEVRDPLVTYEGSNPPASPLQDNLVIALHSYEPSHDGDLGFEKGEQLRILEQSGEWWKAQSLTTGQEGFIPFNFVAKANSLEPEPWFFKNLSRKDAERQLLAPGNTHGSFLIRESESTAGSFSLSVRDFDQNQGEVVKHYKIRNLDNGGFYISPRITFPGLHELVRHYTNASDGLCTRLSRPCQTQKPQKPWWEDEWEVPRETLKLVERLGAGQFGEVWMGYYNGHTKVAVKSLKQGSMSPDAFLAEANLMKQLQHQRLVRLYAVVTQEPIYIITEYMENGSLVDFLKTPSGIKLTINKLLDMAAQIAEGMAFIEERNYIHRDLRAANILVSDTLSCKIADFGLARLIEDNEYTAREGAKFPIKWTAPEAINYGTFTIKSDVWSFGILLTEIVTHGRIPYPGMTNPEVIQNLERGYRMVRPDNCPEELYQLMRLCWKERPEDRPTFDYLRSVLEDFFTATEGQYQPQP

Row | Structure (SMILES) | IC50 (BTK-WT) [nM] | IC50 (JAK3) [nM] | IC50 (LCK) [nM] | IC50 (EGFR) [nM] | IC50 (SRC) [nM]
1 | C[C@H]1CC[C@@H](NC(=O)N(C)C)CN1c1cnc(C(N)=O)c(Nc2cnn(C)c2)n1 [Example D-152, 5-[(2S,5R)-5-[(dimethylcarbamoyl)amino]-2-methylpiperidin-1-yl]-3-[(1-methyl-1H-pyrazol-4-yl)amino]pyrazine-2-carboxamide] | 10 to 100 | 1000 to 10000 | 1000 to 10000 | 1000 to 10000 | 100 to 1000
2 | C[C@@H]1[C@H](NC(=O)c2ccc(C3CC3)cc2F)CCCN1c1cnc(C(N)=O)c(Nc2ccc(N3CCN(C)CC3=O)cc2)n1 [Example D-10, 5-[(2R,3R)-3-(4-cyclopropyl-2-fluorobenzamido)-2-methylpiperidin-1-yl]-3-{[4-(4-methyl-2-oxopiperazin-1-yl)phenyl]amino}pyrazine-2-carboxamide] | ≤ 10 | 1000 to 10000 | 100 to 1000 | 100 to 1000 | 100 to 1000
3 | C[C@@H]1[C@H](NC(=O)c2ccc(C3CC3)cc2F)CCCN1c1cnc(C(N)=O)c(Nc2ccc(S(=O)(=O)N3CCN(C)CC3)cc2)n1 [Example D-130, 5-[(2R,3R)-3-(4-cyclopropyl-2-fluorobenzamido)-2-methylpiperidin-1-yl]-3-({4-[(4-methylpiperazin-1-yl)sulfonyl]phenyl}amino)pyrazine-2-carboxamide] | ≤ 10 | > 10000 | 1000 to 10000 | 1000 to 10000 | 100 to 1000
4 | C[C@@H]1[C@H](NC(=O)c2ccc(C3CC3)cc2F)CCCN1c1cnc(C(N)=O)c(Nc2cnn(C)c2)c1 [Example D-117, 5-[(2R,3R)-3-(4-cyclopropyl-2-fluorobenzamido)-2-methylpiperidin-1-yl]-3-[(1-methyl-1H-pyrazol-4-yl)amino]pyridine-2-carboxamide] | 10 to 100 | 1000 to 10000 | 100 to 1000 | 1000 to 10000 | 100 to 1000
5 | C[C@@H]1[C@H](NC(=O)c2ccc(C3CC3)cc2)CCCN1c1cnc(C(N)=O)c(Nc2ccc(N3CCN(CC(F)(F)F)CC3)cc2)n1 [Example D-97, 5-[(2R,3R)-3-(4-cyclopropylbenzamido)-2-methylpiperidin-1-yl]-3-({4-[4-(2,2,2-trifluoroethyl)piperazin-1-yl]phenyl}amino)pyrazine-2-carboxamide] | 10 to 100 | 1000 to 10000 | > 10000 | > 10000 | 100 to 1000
6 | Cc1cc(Nc2nc(N3CCCC(c4ncc(-c5ccccc5)[nH]4)C3)cnc2C(N)=O)sn1 [Example D-164, 3-[(3-methyl-1,2-thiazol-5-yl)amino]-5-[3-(4-phenyl-3H-imidazol-2-yl)piperidin-1-yl]pyrazine-2-carboxamide] | 10 to 100 | 100 to 1000 | 100 to 1000 | 100 to 1000 | 100 to 1000
7 | C[C@H]1CC[C@@H](NC(=O)c2ccc(C3CC3)cc2)CN1c1cnc(C(N)=O)c(Nc2ccc(N3CCN(C)CC3)cc2)n1 [Example D-154, 5-[(2S,5R)-5-(4-cyclopropylbenzamido)-2-methylpiperidin-1-yl]-3-{[4-(4-methylpiperazin-1-yl)phenyl]amino}pyrazine-2-carboxamide] | ≤ 10 | 100 to 1000 | 100 to 1000 | > 10000 | 100 to 1000
8 | Cc1ccc(-c2cnc([C@H]3CCCN(c4cnc(C(N)=O)c(Nc5cc(C)ns5)n4)C3)[nH]2)cc1 [Example D-136, 3-[(3-methyl-1,2-thiazol-5-yl)amino]-5-[(3S)-3-[5-(4-methylphenyl)-1H-imidazol-2-yl]piperidin-1-yl]pyrazine-2-carboxamide] | 10 to 100 | 1000 to 10000 | 100 to 1000 | 100 to 1000 | 100 to 1000
9 | C[C@@H]1[C@H](NC(=O)N(C)C)CCCN1c1cnc(C(N)=O)c(Nc2ccc(OC3CCN(C4CCCC4)CC3)cc2)n1 [Example D-102, 3-({4-[(1-cyclopentylpiperidin-4-yl)oxy]phenyl}amino)-5-[(2R,3R)-3-[(dimethylcarbamoyl)amino]-2-methylpiperidin-1-yl]pyrazine-2-carboxamide] | ≤ 10 | 100 to 1000 | 10 to 100 | 100 to 1000 | 10 to 100
10 | Cn1cc(Nc2nc(N3CCCC4(C3)CN(c3ccc(C5CC5)cc3)C(=O)O4)cnc2C(N)=O)cn1 [Example D-147, 5-[3-(4-cyclopropylphenyl)-2-oxo-1-oxa-3,7-diazaspiro[4.5]decan-7-yl]-3-[(1-methyl-1H-pyrazol-4-yl)amino]pyrazine-2-carboxamide] | 10 to 100 | 1000 to 10000 | 100 to 1000 | 1000 to 10000 | 100 to 1000
11 | C[C@@H]1[C@H](NC(=O)N(C)C)CCCN1c1cnc(C(N)=O)c(Nc2ccc(N3CCN(C)CC3)cc2)n1 [Example D-111, 5-[(2R,3R)-3-[(dimethylcarbamoyl)amino]-2-methylpiperidin-1-yl]-3-{[4-(4-methylpiperazin-1-yl)phenyl]amino}pyrazine-2-carboxamide] | ≤ 10 | 100 to 1000 | 100 to 1000 | 100 to 1000 | 10 to 100

The remaining lines, values ahead:

Row | IC50 (BTK-WT) [nM] | IC50 (JAK3) [nM] | IC50 (LCK) [nM] | IC50 (EGFR) [nM] | IC50 (SRC) [nM] | Structure (SMILES)
12 | ≤ 10 | 1000 to 10000 | 10 to 100 | 100 to 1000 | 10 to 100 | C[C@@H]1[C@H](NC(=O)N(C)C)CCCN1c1cnc(C(N)=O)c(Nc2cc(C3CCOCC3)ns2)n1 [Example D-162, 5-[(2R,3R)-3-[(dimethylcarbamoyl)amino]-2-methylpiperidin-1-yl]-3-{[3-(oxan-4-yl)-1,2-thiazol-5-yl]amino}pyrazine-2-carboxamide]
13 | 10 to 100 | 1000 to 10000 | > 10000 | > 10000 | > 10000 | C[C@@H]1[C@H](NC(=O)c2ccc(C3CC3)cc2)CCCN1c1cnc(C(N)=O)c(Nc2ccc(N3CCC(F)(F)CC3)cc2)n1 [Example D-96, 5-[(2R,3R)-3-(4-cyclopropylbenzamido)-2-methylpiperidin-1-yl]-3-{[4-(4,4-difluoropiperidin-1-yl)phenyl]amino}pyrazine-2-carboxamide]
14 | ≤ 10 | 1000 to 10000 | 100 to 1000 | 1000 to 10000 | 10 to 100 | CC(=O)NC(C)(C)c1ccc(C(=O)N[C@@H]2CCCN(c3cnc(C(N)=O)c(Nc4cnn(C)c4)n3)[C@@H]2C)cc1 [Example D-107, 5-[(2R,3R)-3-[4-(2-acetamidopropan-2-yl)benzamido]-2-methylpiperidin-1-yl]-3-[(1-methyl-1H-pyrazol-4-yl)amino]pyrazine-2-carboxamide]
15 | ≤ 10 | 100 to 1000 | 10 to 100 | 100 to 1000 | 10 to 100 | Cc1cc(Nc2nc(N3CCC[C@@H](NC(=O)c4ccc(C(C)(C)O)cc4)[C@H]3C)cnc2C(N)=O)sn1 [Example D-159, 5-[(2R,3R)-3-[4-(2-hydroxypropan-2-yl)benzamido]-2-methylpiperidin-1-yl]-3-[(3-methyl-1,2-thiazol-5-yl)amino]pyrazine-2-carboxamide]
16 | ≤ 10 | 1000 to 10000 | 100 to 1000 | 1000 to 10000 | 100 to 1000 | Cc1cc(Nc2nc(N3CCC[C@@H](NC(=O)c4ccc(C(C)(C)O)cc4)C3)cnc2C(N)=O)sn1 [Example D-158, 5-[(3R)-3-[4-(2-hydroxypropan-2-yl)benzamido]piperidin-1-yl]-3-[(3-methyl-1,2-thiazol-5-yl)amino]pyrazine-2-carboxamide]
